Test results as given in patent US20090232917A1, “COMPOSITION FOR RELIEVING SUBJECTIVE SYMPTOMS OF FATIGUE” (Kyowa Hakko Kogyo Co., Ltd., priority 2005, published 2009).

Test system: normal subjects (subjective symptoms of fatigue)
Assay: Test Example 1: subjective symptoms of fatigue by visual analogue scale (VAS) method, tablets for 3 weeks
Type: in vivo, human
Details: 6 tablets of Example 1 per day for 3 weeks
Experimental: A test was carried out as follows. […] Evaluation was carried out in terms of the subjective symptoms of fatigue in the test subjects at the start and completion of the test using a visual analogue scale (VAS) method.
Specifically, each end of the segment has a criterion of expression. Referring to FIG. 1 or 2, each subject was allowed to mark somewhere in the segment, corresponding to each term of the questionnaires. Among the subjective symptoms of fatigue, questionnaires 1 to 8 represent indices related to “drowsiness and dullness”, and questionnaires 9 to 15 represent indices related to “difficulty in concentration”.
The distance (mm) from the left end of the segment to the marked point was measured and the difference between before and after the test was calculated. The difference by the value before the test was shown in the percentage calculated; and the average value and standard deviation for each group were calculated. […] Further, it was confirmed that there was no difference between two groups at the start of the test.
Further, the test was carried out under a random assignment and the comparison between the double blind parallel groups was carried out.

Structure (SMILES): Cl.NCCC[C@H](N)C(=O)O [ornithine, ornithine hydrochloride]
- relieving effect on subjective symptoms of fatigue, all terms (drowsiness and dullness; difficulty in concentration) (VAS questionnaires 1 to 15, versus placebo group, FIG. 3 and 4): relieving effect
- "having difficulty thinking": difference between the placebo group and the ornithine group (VAS, unpaired t-test): significant difference
